Residues, ends and D or L forms follow the SMILES beside them.
Key:
in vivo = details: male, Sprague Dawley, rat, iv
Experimental: (§1) Experiments were performed on mature male Sprague Dawley rats (see Table II for weights). Prior to the experiments the animals were maintained on standard rat chow (Doust and Rabbidge, Sydney, Australia) and tap water. The animals were starved for 15-18h and then anaesthetized by peritoneal injection with Nembutal (Boehringer Ingelheim, Sydney, Australia) (4mg/kg Body Weight (B.W.) pentobarbitone). The internal jugular veins were exposed by blunt dissection and a small gauge silicone catheter (Dow Corning, Sydney, Australia) was introduced and secured with 5-0 silk sutures. Both internal jugular veins were catheterized; the left for dipeptide injection and the right for blood sampling. After insertion, the catheters were kept patent and with occasional flushes (0.2-0.5ml) of heparinized (10U/ml) isotonic saline.
(§2) All dipeptides were proven by to be >98% pure. […] Dipeptides were dissolved in 80mM sodium phosphate buffer, Ph 7.0, made isotonic with sodium chloride and filtered through a 0.2µm membrane filter (Millipore, Sydney, Australia).
(§3) Following an initial baseline blood sample (0.15-0.2ml) a bolus injection of dipeptide (0.2ml, see Table 1 for doses) was administered into the left catheter. Rapid blood samples were taken in the first 5 minutes and then at 10, 20 and 30 minutes following injection. Heparinized (10U/ml) isotonic saline (0.5ml) was injected into the sample catheter after the 5, 10 and 20 minute blood samples to maintain patency of the catheter. At each time point two blood samples were taken: the first, 0.1ml in volume, to remove traces of heparinized saline and blood from the catheter and the second, 0.15-ml in volume, for dipeptide and amino acid determination. One hour after injection of the dipeptide the bladder was exposed and urine was collected with a small gauge hypodermic needle.
(§4) Immediately following collection the blood (0.15-ml) and urine (0.5ml) samples were transferred to pre-weighed stoppered tubes containing 0.6ml of ice-cold 4% (w/v) sulfosalicylic acid. The samples were shaken vigorously and placed on ice for 10 minutes to allow complete deproteinization. The sample tubes were weighed and then centrifuged (bench-top, 1200 x g) for 10 minutes at 2-4°C. The resulting supernatant was filtered (0.45µm membrane, Millipore, Sydney, Australia) and stored at - 80°C. The volume of blood added to the tubes was determined by weight assuming a blood density of 1.06g/ml.
(§5) The concentration of dipeptides and amino acids in the deproteinized samples was determined using a HPLC modification of the standard ion-exchange chromatography, post-column ninhydrin method for physiological amino acids. The column temperature was modified for each dipeptide to produce complete separation of dipeptides and amino acids. The column temperatures were: 70°C for AlaGln, GlyTyr and GlnGly, 60°C for GlyGln, 55°C for GlnAla, and 45°C for AlaTyr.
(§6) Kinetic parameters were calculated for the disappearance of dipeptides, and the amino acids released from the dipeptides using standard equations. In calculating the amino acid clearance the dose was assumed to be that administered as the dipeptide. Baseline amino acid concentrations were subtracted from the amino acid concentrations measured following dipeptide injection to obtain the AUC for amino acids released from the dipeptides. AUC for dipeptides and the constituent amino acids was calculated using the trapezoidal method with extrapolation to infinite time.
(§7) Blood clearance was calculated by dividing the dose of dipeptide by the area under the blood concentration-versus-time curve (AUC). Elimination half-lifes (t½) were estimated from the relationship: t½ = ln2/β, where β is the rate constant for the terminal elimination phase. β was obtained by fitting the concentration-versus-time-curves to a two-compartment model by non-linear least squares regression.

[1] = rat, in vivo
Experimental: as §1, §2, §3, §4, §5, §6, §7

Structure (SMILES)	clearance (in vivo) [mL/min/kg]	mean Vβ of the dipeptide [1] [mL/kg]	mean clearance of glutamine, times greater than glutamine from GlnGly or AlaGln [1] [times]	mean t½ of glutamine, times shorter than glutamine from GlnGly or AlaGln [1] [times]	CLEARANCE OF: Dipeptide ([1]; iv) [mL/min/kg]
C[C@H](N)C(=O)N[C@@H](CCC(N)=O)C(=O)O [ALA-GLN] (H-Ala-Gln-OH)	122	–	–	–	–
C[C@H](N)C(=O)N[C@@H](Cc1ccc(O)cc1)C(=O)O [ALA-TYR] (H-Ala-Tyr-OH)	155	–	–	–	–
C[C@H](NC(=O)[C@@H](N)CCC(N)=O)C(=O)O [GLN-ALA] (H-Gln-Ala-OH)	–	60 to 70	4	3	278

Continued, values first:

clearance (in vivo) [mL/min/kg]	mean Vβ of the dipeptide [1] [mL/kg]	mean clearance of glutamine, times greater than glutamine from GlnGly or AlaGln [1] [times]	mean t½ of glutamine, times shorter than glutamine from GlnGly or AlaGln [1] [times]	CLEARANCE OF: Dipeptide ([1]; iv) [mL/min/kg]	Structure (SMILES)
43	60 to 70	–	–	–	NCC(=O)N[C@@H](CCC(N)=O)C(=O)O [GLY-GLN] (H-Gly-Gln-OH)
101	60 to 70	–	–	–	NCC(=O)N[C@@H](Cc1ccc(O)cc1)C(=O)O [GLY-TYR] (H-Gly-Tyr-OH)
151	–	–	–	–	NC(=O)CC[C@H](N)C(=O)NCC(=O)O [GLN-GLY] (H-Gln-Gly-OH)
187	60 to 70	–	–	–	C[C@H](NC(=O)[C@@H](N)Cc1ccc(O)cc1)C(=O)O [TYR-ALA]

From patent EP0646375A1, “Method of regulating blood amino acid levels” (CLINTEC NUTRITION COMPANY, priority 1993, dated 1995)
